# Records with an inconclusive call do not appear. Calls of active or inactive are those of the source.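 The calls were made as follows: active = fitted curve reaches activity 50 in the expected rising direction at or below the top valid tested dose; inconclusive = no clear call, values can overlap the other calls; inactive = activity in the wrong direction, and the rest.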 Square brackets hold non-standard residues; d marks the D form. Peptide text beside a SMILES is read from it. ξ: configuration not given here. Ac5c = NC1(C(=O)O)CCCC1; ξP = O=C(O)C1CCCN1
# Target: Virion infectivity factor (Human immunodeficiency virus type 1 group M subtype B (isolate BH10)) + Virion infectivity factor (Human immunodeficiency virus type 1 group M subtype B (isolate BRU/LAI)) + Virion infectivity factor (Human immunodeficiency virus type 1 group M subtype B (isolate PCV12)) + Virion infectivity factor (Human immunodeficiency virus type 1 group M subtype B (isolate HXB2)) (UniProt P69720+P69721+P69722+P69723)
# Assay: Vif multimerization inhibitor potency, dose response, imaging, HEK293T, cherry-picks (AID 652241);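 also: imaged cell signal that rises when Vif self-association is disrupted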
# Conditions: 24 h, at 19.5 µM (top of the series)
row,Structure (SMILES),"activity, higher = inhibition"
1,CCOc1ccc2c(C)c(C(=O)O)oc2c1OCC,inactive
2,C/C=C/c1ccc(OCCNCc2ccccc2)c(OC)c1,inactive
3,COc1ccc(OC)c(/C(O)=C/C(=O)C(=O)Nc2cc(C)ccc2OC)c1,inactive
4,COc1ccc(C(=O)Nc2c(Cl)cc(Cl)cc2C(=O)N2CCOCC2)cc1,inactive
5,Cc1ccc(C(=O)NC(CCc2ccccc2)C(=O)O)cc1 (stereo not drawn),inactive
6,CC(C)n1nc(C(=O)Nc2ccc(-n3cnnn3)cc2)c2ccccc2c1=O,inactive
7,CNC(=O)COc1ccccc1C(=O)Nc1ccc2c(c1)oc1ccccc12,inactive
8,CC(C)CCNC(=O)CCc1nnc(COc2ccccc2)o1,inactive
9,COc1cc(/C=C/C(=O)OCC(=O)N2CCCc3ccccc32)ccc1O,inactive
10,COCCN(C(=O)COC(=O)Cc1ccc(Cl)cc1)c1c(N)n(Cc2ccccc2)c(=O)[nH]c1=O,inactive
11,COc1ccc(C(=O)NC2CC3CCCC(C2)N3Cc2ccccc2)cc1OC (stereo not drawn),inactive
12,Cc1nnc(NC(=O)Cn2nc(C)c3ccccc3c2=O)s1,inactive
13,N#Cc1c(-c2ccccc2)cc(C2CC2)nc1SCC(=O)c1cccs1,inactive
14,COC(=O)c1cc(Cl)c(NC(=O)c2cc3ccccc3o2)cc1OC,inactive
15,COc1ccc(NC(=O)c2ccccc2NC(=O)CSc2ccc(C)cc2)cc1,inactive
16,CCCCOc1ncnc2c1[nH]c1ccccc12,inactive
17,CCOc1ccc(C(C)=O)cc1COC(=O)c1cc([N+](=O)[O-])ccc1N1CCOCC1,inactive
18,Cc1cc(/C=C2\C(=N)N3C(SCc4ccccc4)=NSC3=NC2=O)c(C)n1Cc1ccccc1,inactive
19,O=C(CCCn1c(=S)[nH]c2ccccc2c1=O)N1CCN(c2cccc(Cl)c2)CC1,inactive
20,O=C(c1cc(-c2ccccc2O)on1)N1CCCCCC1,inactive
21,CCOC(=O)C1CCCN1C(=O)C1(NC(C)=O)CCCC1 (stereo not drawn) (Ac-[Ac5c]-[ξP]-OEt),inactive
22,O=C(COC(=O)c1ccccc1Br)NC1CCCC1,inactive
23,Cc1ccc(-n2nnc3c(=O)n(CC(=O)OCc4ccccc4)cnc32)cc1,inactive
24,Cc1ccc2c(c1)N(CC(=O)NCC1CCCO1)C(=O)C(C(C)C)O2 (stereo not drawn),inactive

row,Structure (SMILES),"activity, higher = inhibition"
1,Cc1ccnc(SCC(=O)n2c3c(c4ccccc42)CC(C)CC3)n1 (stereo not drawn),inactive
2,COc1ccc(CC(=O)OCC(=O)Nc2cccc(Br)c2)cc1,inactive
3,CCC(=O)Nc1ccc(-c2nnc(SCc3ccc(C(=O)Nc4nccs4)cc3)n2CC)cc1,inactive
4,CCOC(=O)Nc1ccc(NCc2ccc(F)cc2)nc1N,inactive
5,CCOc1ccc(S(=O)(=O)NCc2ccccn2)cc1NC(=O)c1ccccc1,inactive
6,COc1ccc(CC(=O)OCC(=O)NCc2ccc(Cl)cc2)cc1,inactive
7,COc1cc(C(C)=O)ccc1OCC(=O)NCC1(N2CCCCC2)CCCCC1,inactive
8,COc1ccc(S(=O)(=O)Nc2cccc3ccc(O)cc23)cc1,inactive
9,C=CCNc1sc(C(=O)c2ccc(Br)s2)c(N)c1C#N,inactive
10,Cc1ccc(NC(=O)Cn2ncn3c(cc4ccccc43)c2=O)c(C)c1,inactive
11,COc1ccc(N=C2NC(=O)S/C2=C\c2ccc(N(C)C)cc2)cc1,inactive
12,Cc1ccc2c(c1)N(CC(=O)N1CCCCCC1)C(=O)C(C)O2 (stereo not drawn),inactive
13,CN(C)C(=O)c1cc(Br)ccc1Cl,inactive
14,CC1Cc2ccccc2N1C(=O)COC(=O)c1ccccc1NCCO (stereo not drawn),inactive
15,COc1cc(-c2cc(=O)c3c(O)c(OC)c(OC)cc3o2)cc(OC)c1O,inactive
16,CC(C)c1ccc(NC(=O)N2CCCC2C(=O)Nc2ccc(-n3cnnn3)cc2)cc1 (stereo not drawn),inactive
17,O=C1/C(=C/c2ccc(N3CCCC3)cc2)NC(=S)N1C1CC1,inactive
18,Cc1cc(NS(=O)(=O)c2ccc(NC(=O)c3ccc(Cl)cc3Cl)cc2)no1,inactive
19,Cc1cc(C(=O)Nc2c(F)c(F)c(F)c(F)c2F)n(-c2ccccc2)n1,inactive
20,O=C(Cc1ccccc1)OCC(=O)c1ccc(F)cc1,inactive
21,COc1ccc(CNC(=O)Nc2cccs2)cc1OC,inactive
22,CC(C)OC(=O)c1cn(-c2ccccc2)nc1-c1ccc2c(c1)OCCO2,inactive
23,CC(C)C(NC(=O)c1ccccc1NC(=O)C(C)(C)C)C(=O)N1CCOCC1 (stereo not drawn),inactive
24,COc1cc(CNCc2ccccc2)c(Br)cc1OC1CCCC1,inactive
